Experiments:
Tetrahymena thermophila [1] = assay: Binding affinity to Tetrahymena thermophila telomeric 7 G-quadruplex DNA assessed as binding constant Kb1 in presence of 10 mM KCl by fluorescence spectroscopy
Tetrahymena thermophila [2] = assay: Binding affinity to Tetrahymena thermophila telomeric 7 G-quadruplex DNA assessed as binding constant Kb2 in presence of 10 mM KCl by fluorescence spectroscopy

- Kb (Tetrahymena thermophila [1]): 6.3 ×10⁵ /M
- Kb (Tetrahymena thermophila [2]): 1.3 ×10⁵ /M
SMILES: COc1cccc2c1C(=O)c1c(O)c3c(c(O)c1C2=O)C[C@@](O)(C(C)=O)C[C@@H]3O[C@H]1C[C@H](N)[C@H](O)[C@H](C)O1

Source: ChEMBL document CHEMBL4406898, “Dual mode of binding of anti cancer drug epirubicin to G-quadruplex [d-(TTAGGGT)]4 containing human telomeric DNA sequence induces thermal stabilization” (Bioorg Med Chem, 2019)
